In test [1] the target is T1, human RORγt (Ligand Binding Domain) (Homo sapiens, UniProt P51449).
T1 construct: purchased Crelux (Planegg, Germany) batch no PC5032-1
T1 sequence (P51449 269-508 limits assumed): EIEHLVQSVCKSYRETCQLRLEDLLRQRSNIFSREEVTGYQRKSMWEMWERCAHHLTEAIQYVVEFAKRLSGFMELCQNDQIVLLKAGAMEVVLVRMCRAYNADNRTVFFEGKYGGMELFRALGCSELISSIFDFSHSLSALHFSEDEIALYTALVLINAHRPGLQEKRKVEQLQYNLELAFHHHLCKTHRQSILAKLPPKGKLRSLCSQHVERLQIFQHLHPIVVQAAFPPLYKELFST
In words: Fluorescence Polarization (FP) Assay. The conditions noted are these: 100 nM human RORγt LBD, 25 nM TAMRA probe, values are activity range bounds. Summed up: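 In vitro fluorescence polarization binding assay on the RORγt ligand-binding pocket. A TAMRA-labelled RORγt ligand probe (MW 910 g/mol) was used, with DMSO as negative control.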

Test [2] has as its target T2, ligand binding domain of human RORγ (Homo sapiens, UniProt P51449).
T2 construct: host or cells: HEK293t
T2 sequence (P51449 269-508 limits assumed): T1 sequence (P51449 269-508 limits assumed)
Kind of test: RORγ Reporter Assay (Gal4). The settings on record: for inhibition at 1 µM: HEK-293T, 1 μM test compound, HEK293t RORγ reporter cells, 24 hour, read-out: Gal4 activity range @ 1 μM (% inhibition); for Gal4 activity range @ 0.1 μM (% inhibition): RORγ Reporter Assay (Gal4), HEK293t reporter cells, compound at 0.1 μM, values are activity range bounds. The format is cell-based. The essentials: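 HEK293t cells expressing Gal4 DBD–human RORγ LBD hybrid with Gal4-UAS firefly luciferase reporter; compounds at final 1,000 nM and 100 nM (0.1% DMSO), triplicate, medium with 10% charcoal-stripped FBS, 24 h at 37 °C. Luminescence read; percent reduction of RORγ activity calculated versus vehicle-only wells.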

Molecules are shown by their SMILES.

Regarding `NC(=O)Cc1ccc(CNc2ncnc(N(Cc3c(Cl)cccc3Cl)C3CC3)c2F)cc1` [Example A77, 2-[4-[[[6-[cyclopropyl-[(2,6-dichlorophenyl)methyl]amino]-5-fluoro-pyrimidin-4-yl]amino]methyl]phenyl]acetamide], the IC50 in test [1] is < 500 nM. For the same molecule, in test [2], the inhibition at 1 µM is > 50% and the “Gal4 activity range @ 0.1 μM (% inhibition)” value is reported as >20 % inhibition.
Consider `NC(=O)Cc1ccc(CNc2ncnc(N(Cc3ccc(C(F)(F)F)cc3)C3CC3)c2F)cn1` [Example A78, 2-[5-[[[6-[cyclopropyl-[[4-(trifluoromethyl)phenyl]methyl]amino]-5-fluoro-pyrimidin-4-yl]amino]methyl]-2-pyridyl]acetamide], for which, in test [1], the IC50 was < 500 nM. In addition, in test [2], the inhibition at 1 µM was > 80% and the “Gal4 activity range @ 0.1 μM (% inhibition)” value was >50 % inhibition.
Consider `O=C(O)CC1(CNc2ncnc(N(Cc3ccc(C(F)(F)F)cc3)C3CC3)c2F)CCOCC1` [Example A79, 2-[4-[[[6-[cyclopropyl-[[4-(trifluoromethyl)phenyl]methyl]amino]-5-fluoro-pyrimidin-4-yl]amino]methyl]tetrahydropyran-4-yl]acetic acid], for which, in test [1], the IC50 was < 1000 nM. Also, the inhibition at 1 µM in test [2] is > 20%.
For the molecule `CNC(=O)CC1(CNc2ncnc(N(Cc3ccc(C(F)(F)F)cc3)C3CC3)c2F)CCOCC1` [Example A80, 2-[4-[[[6-[cyclopropyl-[[4-(trifluoromethyl)phenyl]methyl]amino]-5-fluoro-pyrimidin-4-yl]amino]methyl]tetrahydropyran-4-yl]-N-methyl-acetamide], the IC50 in test [1] is < 500 nM. In test [2], the inhibition at 1 µM was > 80% and the “Gal4 activity range @ 0.1 μM (% inhibition)” value is recorded as >20 % inhibition.
In the same order, the values of `CN(c1ncnc(NCc2ccc(CC(N)=O)cc2)c1F)C1(c2ccc(C(F)(F)F)cc2)CC1` [Example A81, 2-[4-[[[5-fluoro-6-[methyl-[1-[4-(trifluoromethyl)phenyl]cyclopropyl]amino]pyrimidin-4-yl]amino]methyl]phenyl]acetamide] are < 500 nM, > 80% and >50 % inhibition.
On the same counts, the results for `CC1(c2ccc(CNc3ncnc(N(Cc4ccc(C(F)(F)F)cc4)C4CC4)c3F)cc2)NC(=O)NC1=O` (stereo not shown) [Example A82, 5-[4-[[[6-[cyclopropyl-[[4-(trifluoromethyl)phenyl]methyl]amino]-5-fluoro-pyrimidin-4-yl]amino]methyl]phenyl]-5-methyl-imidazolidine-2,4-dione] are < 1000 nM, > 80% and >20 % inhibition.
On the same counts, the results for `NC(=O)Cc1ccc(CNc2ncnc(N(Cc3ccc(C(F)(F)F)nc3)C3CC3)c2F)cc1` [Example A83, 2-[4-[[[6-[cyclopropyl-[[6-(trifluoromethyl)-3-pyridyl]methyl]amino]-5-fluoro-pyrimidin-4-yl]amino]methyl]phenyl]acetamide] are < 500 nM, > 80% and >50 % inhibition.
As to `NC(=O)Cc1ccc(CNc2ncnc(N(Cc3ccc(C(F)(F)F)cn3)C3CC3)c2F)cc1` [Example A85, 2-[4-[[[6-[cyclopropyl-[[5-(trifluoromethyl)-2-pyridyl]methyl]amino]-5-fluoro-pyrimidin-4-yl]amino]methyl]phenyl]acetamide], the IC50 in test [1] was < 500 nM. For the same molecule, in test [2], the inhibition at 1 µM was > 80% and the “Gal4 activity range @ 0.1 μM (% inhibition)” value is given as >50 % inhibition.
On the same counts, the results for `Fc1c(NCc2ccc(Cc3nnn[nH]3)cc2)ncnc1N(Cc1ccc(-n2cccn2)cc1)C1CC1` [Example A88, N4-cyclopropyl-5-fluoro-N4-[(4-pyrazol-1-ylphenyl)methyl]-N6-[[4-(1H-tetrazol-5-ylmethyl)phenyl]methyl]pyrimidine-4,6-diamine] are < 500 nM, > 50% and >0 % inhibition.
On the same counts, the results for `CS(=O)(=O)c1ccc(CNc2ncnc(N(Cc3ccc(C(F)(F)F)cc3)C3CC3)c2F)cn1` [Example A89, N6-cyclopropyl-5-fluoro-N4-[(6-methylsulfonyl-3-pyridyl)methyl]-N6-[[4-(trifluoromethyl)phenyl]methyl] pyrimidine-4,6-diamine] are < 500 nM, > 80% and >80 % inhibition.
Regarding `CC(C)n1nc(C2CC2)cc1CN(c1ncnc(NCc2ccc(CC(N)=O)cc2)c1F)C1CC1` [Example A90, 2-[4-[[[6-[cyclopropyl-[(5-cyclopropyl-2-isopropyl-pyrazol-3-yl)methyl]amino]-5-fluoro-pyrimidin-4-yl]amino]methyl]phenyl]acetamide], in test [1], the IC50 was < 500 nM. For the same molecule, the inhibition at 1 µM in test [2] is > 0%.
For the molecule `O=S(=O)(Nc1ccc(CNc2ncnc(N(Cc3ccc(C(F)(F)F)cc3)C3CC3)c2F)cc1)C(F)F` [Example A91, N-[4-[[[6-[cyclopropyl-[[4-(trifluoromethyl)phenyl]methyl]amino]-5-fluoro-pyrimidin-4-yl]amino]methyl]phenyl]-1,1-difluoro-methanesulfonamide], in test [1], the IC50 is < 500 nM. In addition, in test [2], the inhibition at 1 µM is > 80% and the “Gal4 activity range @ 0.1 μM (% inhibition)” value is >80 % inhibition.
On the same counts, the results for `NC(=O)CC1CC(CNc2ncnc(N(Cc3ccc(C(F)(F)F)cc3)C3CC3)c2F)C1` (stereo not shown) [Example A95, 2-[3-[[[6-[cyclopropyl-[[4-(trifluoromethyl)phenyl]methyl]amino]-5-fluoro-pyrimidin-4-yl]amino]methyl]cyclobutyl] acetamide] are < 1000 nM, > 80% and >20 % inhibition.
In the same order, the values of `CC(C)c1ccc(CN(c2ncnc(NCc3ccc(CC(N)=O)cc3)c2F)C2CC2)cn1` [Example A97, 2-[4-[[[6-[cyclopropyl-[(6-isopropyl-3-pyridyl)methyl]amino]-5-fluoro-pyrimidin-4-yl]amino]methyl]phenyl]acetamide] are < 500 nM, > 80% and >50 % inhibition.
As for `NC(=O)Cc1ccc(CNc2ncnc(N(Cc3cnc(C(F)(F)F)nc3)C3CC3)c2F)cc1` [Example A98, 2-[4-[[[6-[cyclopropyl-[[2-(trifluoromethyl)pyrimidin-5-yl]methyl]amino]-5-fluoro-pyrimidin-4-yl]amino]methyl]phenyl]acetamide], in test [1], the IC50 is < 500 nM. In addition, in test [2], the inhibition at 1 µM is > 80% and the “Gal4 activity range @ 0.1 μM (% inhibition)” value is >50 % inhibition.
In the same order, the values of `NC(=O)Cc1ccc(CNc2ncnc(N(Cc3cccc(C(F)(F)F)c3)C3CC3)c2F)cc1` [Example A101, 2-[4-[[[6-[cyclopropyl-[[3-(trifluoromethyl)phenyl]methyl]amino]-5-fluoro-pyrimidin-4-yl]amino]methyl]phenyl]acetamide] are < 500 nM, > 50% and >50 % inhibition.

For the origin of these results see US10683293B2, “Optionally fused heterocyclyl-substituted derivatives of pyrimidine useful for the treatment of inflammatory, metabolic, oncologic and autoimmune diseases” (NUEVOLUTION A/S, priority 2014, dated 2020).
